Test results from the supplement of paper PMC10307832.

Legend:
Assay in all cases: relative viability (nuclei count vs DMSO), 5 days (fraction); higher = more cells survive
AZD5582 + Foretinib = compound: C[C@@H](C(=O)N[C@@H](C1CCCCC1)C(=O)N2CCC[C@H]2C(=O)N[C@@H]3[C@@H](CC4=CC=CC=C34)OCC#CC#CCO[C@@H]5CC6=CC=CC=C6[C@@H]5NC(=O)[C@@H]7CCCN7C(=O)[C@H](C8CCCCC8)NC(=O)[C@H](C)NC)NC [AZD5582] + COc1cc2c(Oc3ccc(NC(=O)C4(C(=O)Nc5ccc(F)cc5)CC4)cc3F)ccnc2cc1OCCCN1CCOCC1 [Foretinib] (partner 0.25 µM)
Summary of the method: (§1)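 Values are medians from duplicate plates. Each reflects relative viability, defined as the nuclei count of treated wells over that of vehicle wells. Lung cancer cell lines in 1536-well plates were pin-tool dosed one day after seeding with one drug alone or with a fixed anchor-drug dose plus five library-drug doses (not always all listed) in √10 steps, then fixed, stained and imaged at 4× after 5 days.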

AZD5582 + Decitabine = compound: C[C@@H](C(=O)N[C@@H](C1CCCCC1)C(=O)N2CCC[C@H]2C(=O)N[C@@H]3[C@@H](CC4=CC=CC=C34)OCC#CC#CCO[C@@H]5CC6=CC=CC=C6[C@@H]5NC(=O)[C@@H]7CCCN7C(=O)[C@H](C8CCCCC8)NC(=O)[C@H](C)NC)NC [AZD5582] + Nc1ncn([C@H]2C[C@H](O)[C@@H](CO)O2)c(=O)n1 [Decitabine] (partner 2 µM)
Summary of the method: as §1

AZD5582 + Vorinostat = compound: C[C@@H](C(=O)N[C@@H](C1CCCCC1)C(=O)N2CCC[C@H]2C(=O)N[C@@H]3[C@@H](CC4=CC=CC=C34)OCC#CC#CCO[C@@H]5CC6=CC=CC=C6[C@@H]5NC(=O)[C@@H]7CCCN7C(=O)[C@H](C8CCCCC8)NC(=O)[C@H](C)NC)NC [AZD5582] + O=C(CCCCCCC(=O)Nc1ccccc1)NO [Vorinostat] (partner 1 µM)
Summary of the method: as §1

[1] = compound: Cn1nnc2c(C(N)=O)ncn2c1=O [Temozolomide] + CC1(C)CCC(c2ccc(Cl)cc2)=C(CN2CCN(c3ccc(C(=O)NS(=O)(=O)c4ccc(N[C@H](CCN5CCOCC5)CSc5ccccc5)c(S(=O)(=O)C(F)(F)F)c4)cc3)CC2)C1 [Navitoclax] (partner 0.5 µM)
Summary of the method: as §1

Row | Cell Line | relative viability (AZD5582 + Foretinib; first compound 0.001581 µM) | relative viability (AZD5582 + Foretinib; first compound 0.005 µM) | relative viability (AZD5582 + Foretinib; first compound 0.01581 µM) | relative viability (AZD5582 + Foretinib; first compound 0.05 µM) | relative viability (AZD5582 + Decitabine; first compound 0.001581 µM) | relative viability (AZD5582 + Decitabine; first compound 0.005 µM) | relative viability (AZD5582 + Decitabine; first compound 0.01581 µM) | relative viability (AZD5582 + Decitabine; first compound 0.05 µM) | relative viability (AZD5582 + Vorinostat; first compound 0.001581 µM) | relative viability (AZD5582 + Vorinostat; first compound 0.005 µM) | relative viability (AZD5582 + Vorinostat; first compound 0.01581 µM) | relative viability (AZD5582 + Vorinostat; first compound 0.05 µM) | relative viability ([1]; first compound 0.2 µM) | relative viability ([1]; first compound 0.6325 µM) | relative viability ([1]; first compound 2 µM) | relative viability ([1]; first compound 6.325 µM) | relative viability ([1]; first compound 20 µM)
1 | NCI-H358 | 0.684 | 0.938 | 0.779 | 0.626 | 0.199 | 0.241 | 0.245 | 0.215 | 0.639 | 0.745 | 0.678 | 0.714 |  |  |  |  | 
2 | HCC-827 | 0.936 | 1.06 | 1.04 | 0.999 | 0.281 | 0.292 | 0.348 | 0.308 | 0.771 | 0.892 | 0.694 | 0.822 | 1.07 | 1.07 | 0.992 | 0.984 | 0.129
3 | NCI-H1355 | 0.894 | 0.881 | 0.938 | 0.705 | 0.359 | 0.317 | 0.357 | 0.364 | 0.568 | 0.711 | 0.535 | 0.596 | 0.837 | 0.927 | 0.964 | 0.927 | 0.913
4 | NCI-H1793 | 0.737 | 0.827 | 0.572 | 0.908 | 0.487 | 0.607 | 0.473 | 0.53 | 0.767 | 0.927 | 0.565 | 0.587 |  | 0.358 | 0.415 | 0.506 | 0.3
5 | CAL-12T | 0.821 | 0.772 | 1.06 | 0.732 |  |  |  |  | 0.533 | 0.703 | 0.644 | 0.754 | 1.35 | 1.13 | 1.21 | 1.29 | 1.26
6 | NCI-H1993 | 0.792 | 0.786 | 0.854 | 0.715 | 0.634 | 0.7 | 0.603 | 0.613 | 0.725 | 0.888 | 0.795 | 1.03 | 0.823 | 0.893 | 0.889 | 0.879 | 0.804
7 | EKVX | 0.691 | 0.932 | 0.553 | 0.612 | 0.351 | 0.377 | 0.294 | 0.385 | 0.72 | 0.934 |  | 0.932 | 0.856 | 0.962 | 0.902 | 0.976 | 0.597
8 | NCI-H1755 | 0.939 | 0.98 | 0.846 | 1 | 0.709 | 0.761 | 0.694 | 0.725 | 0.775 | 0.863 | 0.688 | 0.88 | 1.07 | 0.982 | 1.01 | 0.971 | 0.727
9 | NCI-H2228 | 0.843 | 1 | 0.788 | 0.472 |  |  |  |  | 0.81 | 0.702 | 0.667 | 0.645 | 0.921 | 1.43 | 0.951 | 0.857 | 1.26
10 | NCI-H460 | 0.916 | 1.03 | 0.952 | 0.97 | 0.424 | 0.491 | 0.466 | 0.577 | 0.655 | 0.686 | 0.697 | 1.01 | 1.28 | 1.08 | 1.22 | 1.22 | 1.18
11 | HCC-44 |  |  |  |  | 0.828 | 0.786 | 0.845 | 0.681 | 1.04 | 1.01 | 1.08 | 1.04 | 0.972 | 1.02 | 0.913 | 0.966 | 0.983
12 | BEN | 0.634 | 0.751 | 0.627 | 0.415 | 0.699 | 0.668 | 0.683 | 0.62 | 0.53 | 0.568 | 0.591 | 0.555 | 0.0644 | 0.0697 | 0.0579 | 0.0678 | 0.0653
13 | H3255 | 0.868 | 0.796 | 0.741 | 0.772 | 0.556 | 0.626 | 0.572 | 0.553 | 0.831 | 0.976 | 0.722 | 0.48 |  | 0.523 | 0.469 | 0.485 | 0.0789
14 | NCI-H1650 | 0.971 | 1.33 | 1.27 | 0.889 | 0.389 | 0.366 | 0.51 | 0.279 | 0.528 | 0.534 | 0.576 | 0.572 | 1.39 | 1.33 | 1.08 | 1.28 | 0.974
15 | A-427 | 0.986 | 0.881 | 1.09 | 0.769 | 0.496 | 0.582 | 0.573 | 0.53 | 0.816 | 0.862 | 0.885 | 0.904 | 0.971 | 0.923 | 0.949 | 0.596 | 0.592
16 | NCI-H1651 | 0.714 | 0.883 |  | 1.16 | 0.572 | 0.571 | 0.559 | 0.654 | 0.525 | 0.557 | 0.56 | 0.584 | 1.15 | 1.01 | 1.07 | 0.958 | 1
17 | EPLC-272H | 0.0672 |  | 0.546 | 0.0632 | 0.148 |  | 0.385 | 0.0824 |  |  | 0.429 | 0.074 | 1.15 | 1.01 | 1.12 | 0.996 | 0.879
18 | NCI-H2009 | 1.22 | 1.28 | 1.19 | 1.29 | 0.4 | 0.355 | 0.412 | 0.363 | 0.695 | 0.743 | 0.711 | 0.792 | 1.2 | 1.22 | 1.12 | 1.17 | 1.25
19 | HCC-15 | 0.74 | 0.805 | 0.959 | 0.75 | 0.534 | 0.559 | 0.602 | 0.418 | 0.762 | 0.883 | 0.752 | 0.967 | 0.746 | 0.731 | 0.805 | 0.687 | 0.689
